Laboratory results reported in patent US20110081428A1, “Use of thioflavin-like compounds to increase life span and/or health span” (priority 2009, published 2011).

What was measured:
Format in all cases: in vivo, Caenorhabditis elegans
[1] = test system: HE250 [unc-52(e669su250)II]; assay: RNAi knockdown of proteostasis factors with paralysis scoring; settings: HE250, 50 μM ThT
Experimental: RNAi bacterial strains expressing double-stranded RNA that inactivates specified genes were cultured and utilized as previously described. (Timmons, L., Court, D. L. & Fire, A. Ingestion of bacterially expressed dsRNAs can produce specific and potent genetic interference in Caenorhabditis elegans. Gene 263, 103-112 (2001).) Briefly, eggs isolated from synchronous populations of unc-52(e669su250) cultures were placed on fresh RNAi plates and allowed to grow at 15° C.; 3 days later, L4 molt animals were transferred to new plates seeded with the same bacteria in presence or absence of ThT and switched to 25° C. The cultures were scored for paralysis after 48 h of treatment as described above. In all cases, 1 mM isopropyl-beta-D-thiogalactopyranoside (IPTG) was used for induction of double stranded RNA. In all the cases the identity of the clones was confirmed by sequencing.

unc-52 RNA = assay: Real time quantitative PCR, unc-52; settings: 50 μM ThT, 12 days of treatment
Experimental: (§1) Twelve single adults from control or 50 μM ThT populations were picked after 3, 6 and 12 days of treatment into 5 μl of distilled water and flash frozen until extraction. Individual worms were extracted using the RNeasy Micro Kit, TissueLyser and QIAcube (Qiagen). Using the manufacturer's standard Animal Tissue protocol, each sample was homogenized in buffer RLT/Bme (Qiagen) on the TissueLyser (6 min total at 20 Hz). Samples, reagents and columns were then loaded into the QIAcube robot, and processed using the “RNeasy Micro—Animal tissues and cells—DNase digest” program. Each sample was then eluted in 14 μl of Nuclease-free water. cDNA templates for the Real Time PCR reactions were made using a combination of Message Sensor RT kit (Ambion's) and TaqMan PreAmp Master Mix (Applied Biosystems). The entire worm sample was added to the RT reaction and reversed transcribed at 50° C. for 20 min, using Message Sensor's “Two Step RT-PCR Protocol” (sample RT's were randomized). Then 2.5 μl of the cDNA sample was pre-amplified with a “4×Multiplex Primer Mix” for 14 cycles using TaqMan PreAmp master mix and protocol (ABI). Two modifications were made to ABI's protocol: 1. the reaction volume was reduced to 10 μl and 2. after pre-amplification, each cDNA sample was diluted 1:5 with 1XTE Buffer (Promega). cDNA samples were stored at −20° C. until needed. […]

unc-54 RNA = assay: Real time quantitative PCR, unc-54; settings: 50 μM ThT, 3, 6 and 12 days of treatment
Experimental: as §1

HSP-16.2 = assay: Western blot HSP-16.2; settings: 50 μM ThT, 100 μM curcumin, 4 and 7 days of treatment
Experimental: Peptide corresponding to amino acids 110-145 ([…]; SEQ ID NO:1) of HSP-16.2 was used to commercially synthesize antiserum (Invitrogen). Briefly, KLH-peptide was emulsified by mixing with an equal volume of Freund's adjuvant and injected into three subcutaneous dorsal sites for a total of 0.1 mg of peptide for immunization. The animals (rabbits) were bled, the blood allowed to clot and the serum collected by centrifugation. Monoclonal HSP-70 and Polyclonal HSF-1 primary antibodies were from stressgen (N27F3-4 and SPA-901, respectively).
Worms were transferred to siliconized eppendorf tubes, washed once in S-basal and frozen in liquid N2. Standard SDS-PAGE was performed using (4-12%) NOVEX gels and IVIES running buffer. Following transfer PVDF (BioRad) membranes were incubated with antisera (1:10000) or primary antibodies (1:1000) diluted in blocking buffer and then with secondary, goat anti-rabbit IgG antibody/horseradish peroxidase conjugate (Pierce), diluted 1:25000. Detection was undertaken with chemiluminescent reagents (SuperSignal, Pierce) and standard autoradiography.

HSF-1 RNA = assay: Real time quantitative PCR, hsf-1; settings: 50 μM ThT, 3, 6 and 12 days of treatment
Experimental: as §1

CF1038 [daf-16(mu86)I] = assay: Lifespan assay, daf-16 mutant; settings: 50 μM ThT, 100 μM curcumin
Experimental: Lifespan assays were performed as described previously. (McColl, G. et al. Pharmacogenetic analysis of lithium-induced delayed aging in Caenorhabditis elegans. J Biol Chem 283, 350-357 (2008). Briefly, the nematode growth media (NGM) plates were prepared under sterile conditions. 100 μL of concentrated stocks of each of the compounds used in this study were added onto a previously prepared NGM small plate (3 mL volume) immediately spread over the surface of the plate. The final concentrations quoted in the text assume an even distribution of compound throughout the 3 ml plate. The plates were then placed in a laminar flow hood at room temperature for 30 min and then 60 μL of a concentrated suspension of E. coli OP50 was spotted to form a circular lawn on the center of each plate. Thirty late L4 larvae growing at 20° C. were transferred to fresh NGM plates with FUdR (75 μM) in presence or absence of the specified compounds and incubated at 20° C. The first day of adulthood is Day 3 in survival curves. There was between-experiment variation in the magnitude of the lifespan extension observed with ThT which appeared to correlate with different suppliers and batches. ThT concentration should be optimized depending on batch and purity and stability of the compound. […]
Animals were scored as alive, dead or lost every other day. […]

In the case of `Cc1ccc2c(c1)sc(-c1ccc(N(C)C)cc1)[n+]2C.[Cl-]` [ThT, 4-(3,6-dimethyl-1,3-benzothiazol-3-ium-2-yl)-N,N-dimethylaniline chloride], the “ThT protection from paralysis with RNAi of proteasome and autophagy genes” value ([1]; RNAi aip-1, atg-9, vps-34) is reported as “required for the beneficial effects of ThT”, the “ThT protection from paralysis with RNAi of acute stress genes” value ([1]; RNAi hsp-16.2, hsp-16.41) is reported as “decreased” and the “ThT suppression of paralysis with daf-16 RNAi” value ([1]; daf-16 (RNAi)) is reported as “potentiated”. For the same compound, the “ThT effect on paralysis with lmp-2 RNAi” value ([1]; lmp-2(RNAi)) was “significantly improved the ThT effect on paralysis”, the “ThT effect on paralysis with skn-1 RNAi” value ([1]; skn-1 (RNAi)) was “required for ThT effect on the paralysis phenotype” and the “unc-52 RNA levels” value (unc-52 RNA) was “decreases the levels of unc-52”. For the same compound, the “unc-54 RNA levels” value (unc-54 RNA) was “increases unc-54 RNA levels after 3, but not at 6 or 12 days of treatment”, the HSP-16.2 protein levels (HSP-16.2) was “up-regulated” and the “HSF-1 RNA levels” value (HSF-1 RNA) was “no changes were detected”. The “lifespan of daf-16(mu86) mutant” value (CF1038 [daf-16(mu86)I]) was “extended the lifespan”.
